# Measurements from article PMC12040169 (PLOS Biology, 2025).
# Experiment: in vitro
# Conditions: human, hela cells, % viability
row,SMILES,"viability at 28.5 h, 10 µM"
1,CC(=O)NC1(c2ccc(F)cc2)CCN(CC(=O)NCC2CC2)CC1 [CBK283614],93.9%
2,CC(C)c1ccc(S(=O)(=O)Nc2ccc(C(=O)O)c(O)c2)cc1 [CBK299819],104%
3,O=C(Nc1ccccc1)NC1CC2CCC(C1)N2Cc1nnnn1Cc1ccco1 (stereo not drawn) [CBK085071],107%
4,CS(=O)(=O)N(CC(=O)NC1CCCCCCC1)c1ccccc1 [CBK270112],96.1%
5,O=C(Cc1ccccc1F)N1CCC(n2cnc3cccnc32)CC1 [CBK283635],87.7%
6,Cc1ccc(-n2c(SCC(=O)Nc3ccccc3C#N)nnc2-c2cc(Br)ccc2O)c(C)c1 [CBK268743],94.1%
7,CNC(=O)CN1C[C@H](NC(=O)c2cccc3c2NCCC3)[C@@H](C(C)C)C1 [CBK307073],80.6%
8,Cc1csc(CC(C)n2cc(Cl)cn2)n1 (stereo not drawn) [CBK304797],99.8%
9,COc1ccc(NC(=O)c2ccc3nsnc3c2)cc1 [CBK263160],92.6%
10,O=C(NCCN1CCOCC1)C1CCN(C(=O)c2cccc(F)c2)CC1 [CBK304627],85.8%
11,O=C(C1CN(S(=O)(=O)c2ccccc2)CCN1S(=O)(=O)c1ccccc1)N1CCCCC1 (stereo not drawn) [CBK262686],86.4%
12,COc1ccccc1-c1ccc(CC2(C(=O)NCCc3ccccc3)CCOCC2)cc1 [CBK286516],102%
13,CC(=O)c1c(C)oc2ccc(N(C(=O)c3cccc([N+](=O)[O-])c3)S(=O)(=O)c3cccc4cccnc34)cc12 [CBK267044],70.2%
14,CC(=O)N1CCC2(C/C=C/C[C@H]3CN(C(=O)CCC4CCCC4)CC[C@H]3NC(=O)CNC2=O)CC1 [CBK292111],87%
15,CCc1nccn1CCC(=O)NC(c1ccc(C)cc1)c1cccnc1 (stereo not drawn) [CBK282032],103%
16,CN1CCC(=NNC(=O)c2ccc(CN(c3ccccc3)S(C)(=O)=O)cc2)CC1 [CBK262728],97.8%
17,Cn1nccc1CNc1ncn(CC(=O)N2CCCCCC2)n1 [CBK306454],90%
18,C=CCn1c(SCC(=O)Nc2nc3ccc(OCC)cc3s2)nc2cc(C(=O)O)ccc2c1=O [CBK297520],113%
19,COc1cc(-c2cnc3[nH]c(=O)n([C@@H](CO)C(C)C)c3n2)cc(OC)c1OC [CBK064471],105%
20,CC(OC(=O)Cc1ccccc1[N+](=O)[O-])c1nnnn1-c1ccccc1 (stereo not drawn) [CBK297920],97.6%
21,O=C(NO)c1nccnc1-c1ccc(COc2ccccc2)cc1 [CBK050841],96.4%
22,O=C(O)C1(NS(=O)(=O)c2ccc(F)c(Cl)c2)CCCCC1 [CBK267276],98.2%

row,SMILES,"viability at 28.5 h, 10 µM"
1,CC(=O)N1CC(C(=O)Nc2ncc(-c3ccccc3)n2C)C1 [CBK281373],96.1%
2,O=C(O)c1ccc(NS(=O)(=O)c2ccc(Br)cc2)cc1 [CBK034058],97.6%
3,O=C(Nc1sc2c(c1C(=O)N1CCOCC1)CCCC2)c1cccs1 [CBK304649],92.9%
4,Cc1nnc(SCC(=O)NNC(=O)c2cccs2)[nH]1 [CBK266879],93.7%
5,Cc1cc2nc(CC(=O)NN)[nH]c2cc1C [CBK012180],89.3%
6,O=C(O)c1cccc(-c2ccc(Nc3cccc(NC(=O)c4ccncc4)c3)nc2)c1 [CBK037776],101%
7,O=C(NCCn1nc2c(cc1=O)CCCCC2)c1ccccc1 [CBK283278],85.7%
8,N#Cc1ccc(S(=O)(=O)NC2CCCCNC2=O)cc1 (stereo not drawn) [CBK009293],102%
9,Cc1c(C(N)=O)sc2ncn(CCc3ccccc3)c(=O)c12 [CBK268492],103%
10,NS(=O)(=O)c1ccc(CCNC(=O)c2cccnc2)cc1 [CBK268158],102%
11,COCCn1c(=O)[nH]c2ncc(-c3ccc4c(c3)OCO4)nc21 [CBK064164],95.8%
12,O=C(Cn1cccc(C(=O)NC2CCCCC2)c1=O)Nc1nc2c(s1)CCCCC2 [CBK286056],90.1%
13,O=C(Nc1nnc[nH]1)c1ccccc1CCc1ccccc1 [CBK268616],95.9%
14,Nc1c(-c2ccc3c(c2)CCO3)cnc2ncccc12 [CBK083678],96%
15,COc1ccccc1N1CCN(C(=O)CN2C(=O)c3ccccc3C2=O)CC1 [CBK091501],95.5%
16,N=c1n(CCN2CCCC2)c2ccccc2n1CC(O)c1ccc(Cl)c(Cl)c1 (stereo not drawn) [CBK263448C],83.6%
17,CN(C)c1ccc(-c2nccnc2NS(=O)(=O)c2ccc3ccccc3c2)cc1 [CBK050794],93.4%
18,COc1ccc(C)cc1S(=O)(=O)n1ccc2c(CNC3CC(C)(C)NC(C)(C)C3)cccc21 [CBK113311T],83.1%
19,O=C(O)c1cc(Br)cc2c3c([nH]c12)CCCC3 [CBK100973],99.7%
20,CC1(C)[C@H](Cc2cc(CO)on2)C[C@@H]1NS(=O)(=O)c1ccccc1 [CBK289234],86%
21,FC(F)(F)c1nc2ccccc2nc1SCCc1ccccc1 [CBK107204],90.3%
22,CS(=O)(=O)c1ccc(-c2cccc(COC3CCN(C(=O)Cc4ccc(F)cc4F)CC3)c2)cc1 [CBK149506],87.8%

row,SMILES,"viability at 28.5 h, 10 µM"
1,Cc1ccc(/C=N/n2c(S)nnc2COc2ccccc2)o1 [CBK265244],110%
2,O=C(Nc1cccc(F)c1)c1cc2ccccc2cc1O [CBK016863],102%
3,O=C1CNC(=O)C2(C/C=C/C[C@H]3COCC[C@@H]3N1)CCN(C(=O)c1cccc(Cl)c1)CC2 [CBK292066],111%
4,CCn1c(=O)n(CC(=O)NCc2cccc(F)c2)c2cccnc21 [CBK283891],86.4%
5,COc1cccc(CN2C(=O)COc3ccc(C(=O)c4cccs4)cc32)c1 [CBK286412],96.1%
6,COC(=O)[C@H]1CCc2ccccc2N1C(=O)C(C)C [CBK285474],100%
7,CC(C)[C@H](CO)n1c(=O)[nH]c2ncc(-c3cccc4ncccc34)nc21 [CBK064955],99.5%
8,O=C(COc1cccc(Cl)c1)NNC(=S)Nc1ccccc1 [CBK267180],88.4%
9,CC1(C)CC(=O)C2=C(C1)OC(=O)CC2c1ccc(Cl)cc1Cl (stereo not drawn) [CBK007777],93.8%
10,O=C(CN1C(=O)N2CCN=C2c2ccccc21)NC1CCCC1 [CBK283959],100%
11,COCCOc1ccc(C(=O)N2CCN(c3ccccc3)CC2)cc1 [CBK304626],106%
12,COc1ccc(-n2cc(-c3ccc(F)cc3)nn2)cc1OC [CBK113110],89.8%
13,CCCC(=O)c1ccc(S(=O)(=O)N2CCCN(Cc3c[nH]nc3-c3ccccc3)CC2)cc1 [CBK062916],83.9%
14,CCCc1cn(C2CCN(c3cc(-n4cc(C)cn4)ncn3)CC2)nn1 [CBK307127],104%
15,CC(=O)N1CCC(NC(=O)c2cccc(C(N)=O)c2)CC1 [CBK297747],115%
16,O=c1[nH]c2c(c(=O)[nH]1)[C@H]1[C@H](O)[C@H](O)C[C@H]1[C@@H](c1ccccc1)N2 [CBK303239],88.1%
17,O=C(O)COc1ccc(S(=O)(=O)N2CCCc3ccccc32)cc1 [CBK269935],110%
18,COc1ccc(C(=O)NNC(=O)c2cc(OC)cc(OC)c2)cc1 [CBK262616],96%
19,COC(=O)c1sc(-c2ccsc2)cc1N [CBK006256],91.8%
20,CCCc1nc(C(=O)NC2CC(=O)N(CCc3ccc(F)cc3)C2)cs1 (stereo not drawn) [CBK306548],105%
21,Cc1cccc(-c2nnc(-c3ccc(NC(=O)CSCc4ccccc4)cc3)o2)c1 [CBK266775],109%
22,CN1CCN(c2ccc(S(=O)(=O)Nc3cc(C(=O)O)cc(C(=O)O)c3)cc2[N+](=O)[O-])CC1 [CBK263862],96.8%

row,SMILES,"viability at 28.5 h, 10 µM"
1,CC(Oc1cccc(Cl)c1)C(=O)NN (stereo not drawn) [CBK261207],90.1%
2,FC(F)(F)c1ccnc(OCc2ccc(-c3ccccc3)cc2)c1 [CBK115826],108%
3,CCN(CC)CCN(C(=O)c1cnn(C)c1C)C1CCS(=O)(=O)C1 (stereo not drawn) [CBK305321],89.1%
4,CC1CCc2nc(NC(=O)C3CN(S(=O)(=O)c4ccc(F)cc4)C3)sc2C1 (stereo not drawn) [CBK286004],110%
5,OCCN1CCN(c2nc3ccccc3nc2-c2ccccc2)CC1 [CBK268799C],111%
6,COc1ccc([C@@]2(O)CC[C@@H]3CN(C(=O)C4CCCC4)C[C@@H]32)cc1 [CBK285260],85%
7,OCCC1CCCCN1c1nccnc1-c1ccsc1 (stereo not drawn) [CBK037358],105%
8,NS(=O)(=O)c1ccc(CCNC(=O)/C=C/c2ccccc2[N+](=O)[O-])cc1 [CBK265709],101%
9,COc1ccccc1-c1[nH]nc(O)c1Cc1c(Cl)cccc1Cl [CBK107933],86.1%
10,Cc1ccc(-c2noc(CSc3nnc(CCc4ccccc4)n3-c3ccccc3)n2)cc1 [CBK268493],93.1%
11,Nc1c2c(nc3ccccc13)CCCC2O (stereo not drawn) [CBK008271F],95.7%
12,Cc1cc2c(s1)c1cnn(CC(=O)NC(C)C)c(=O)c1n2C [CBK284155],79.7%
13,CCNc1nc2c(c(=O)[nH]c(=O)n2C)n1CCCc1ccccc1 [CBK269243],94.6%
14,O=C(CN(Cc1ccccc1Cl)S(=O)(=O)c1ccc(Cl)cc1)NC1CCCCC1 [CBK264659],97.5%
15,COc1cc(CN2CCN(c3ccccn3)CC2)ccc1OCc1ccccc1 [CBK261906],88.8%
16,O=CN1CCc2c([nH]c3cc(F)ccc23)C12CCN(CCc1ccc3c(c1)OCO3)CC2 [CBK039614],86.5%
17,N#C/C(=C\c1cn(-c2ccccc2)nc1-c1ccc(S(=O)(=O)N2CCCCC2)cc1)c1nc2ccccc2c(=O)[nH]1 [CBK266268],101%
18,CN(C)C(=O)c1cc2cc(NC(=O)CC3COCCN3)ccc2s1 (stereo not drawn) [CBK306710],105%
19,O=C(COc1ccccc1)NCC1(c2ccccc2)CCOCC1 [CBK067407],103%

# Same assay, conditions: human, hela cells, % viability, bulk resorufin, single well
row,SMILES,"viability at 28.5 h, 10 µM"
1,c1csc(-c2ccc3c(c2)COC2(CCNCC2)O3)c1 [CBK060871],90.3%
2,CCC(=O)N1CCC(C#N)(c2ccccc2)CC1 [CBK091400],87%
